Broadly, the EC50 is the concentration at which the effect is half-maximal.

This note sets out measurements from patent US11072598B2, “Somatostatin modulators and uses thereof” (CRINETICS PHARMACEUTICALS, INC., priority 2017, dated 2021).

Each structure is given as a SMILES string.

T1 sequence (P30874 whole entry): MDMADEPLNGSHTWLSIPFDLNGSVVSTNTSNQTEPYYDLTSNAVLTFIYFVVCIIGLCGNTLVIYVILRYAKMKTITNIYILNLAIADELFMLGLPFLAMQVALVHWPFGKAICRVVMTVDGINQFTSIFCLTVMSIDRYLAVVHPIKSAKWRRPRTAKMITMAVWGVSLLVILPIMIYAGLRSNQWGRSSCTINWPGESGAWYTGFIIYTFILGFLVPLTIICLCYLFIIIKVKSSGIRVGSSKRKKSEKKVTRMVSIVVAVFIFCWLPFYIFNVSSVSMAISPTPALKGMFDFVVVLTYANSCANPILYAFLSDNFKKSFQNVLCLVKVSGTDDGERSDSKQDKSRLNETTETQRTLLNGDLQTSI

This assay concerns the target T1, human somatostatin receptor subtype 2 (Homo sapiens, UniProt P30874).
T1 construct: expressed in transfected cells
In words: cAMP functional assay for SSTR2 agonists. In kind it is cell-based. The conditions noted are these: inhibition of cAMP activities via human SST2 receptor (SSTR2), CHO-K1 cells; read-out: EC50. An excerpt:
General overview: All five SSTR subtypes are Gi coupled G-protein coupled receptors (GPCRs) that lead to decreases in intracellular cyclic AMP (cAMP) when activated by an agonist. Therefore, measurement of intracellular cAMP levels can be used to assess whether compounds of the invention are agonists of SSTR subtypes (John Kelly, Troy Stevens, W. Joseph Thompson, and Roland Seifert, Current Protocols in Pharmacology, 2005, 2.2.1-2.2). One example of an intracellular cAMP assay is described below. cAMP assay protocol:
Four days prior to the assay, 5,000 Chinese hamster ovary cells (CHO-K1, ATCC #CCL-61) stably expressing the human somatostatin receptor subtype 2 are plated in each well of a 96-well tissue culture-treated plate in Ham's F12 growth media (ThermoFisher #10-080-CM) supplemented with 10% donor bovine serum (Gemini Bio-Products #100-506), 100 U/mL penicillin; 100 ug/mL streptomycin; 2 mM L-glutamine (Gemini Bio-Products #400-110) and 0.2 mg/mL hygromycin B (GoldBio #31282-04-9). The cells are cultured at 37° C., 5% CO2 and 95% humidity. On the day of the assay, the media is aspirated and the cells are treated with 50 μL of 1.6 μM NKH477 (Sigma #N3290) plus various dilutions of compounds of the invention in assay buffer [1× Hank's Balanced Salt Solution (ThermoFisher #SH3058802), 0.5 mM HEPES pH 7.4, 0.1% bovine serum albumin, 0.2 mM 3-Isobutyl-1-methylxanthine (IBMX, VWR #200002-790)]. The cells are incubated for 20 minutes at 37° C. […] The cells are treated with 50 μL of lysis buffer (HRTF cAMP kit, Cisbio). The lysate is transferred to 384-well plates and cAMP detection and visualization antibodies are added and incubated for 1-24 hours at room temperature. The time-resolved fluorescent signal is read with a Tecan M1000Pro multiplate reader. The intracellular cAMP concentrations are calculated by regression to a standard curve and are plotted vs. the concentration of the compounds of the invention and the EC50 of the compounds are calculated using standard methods. All data manipluations are in GraphPad Prism v6.
In the case of `COc1cc(C)cc(-c2cnc(N)c(-c3nc4cc(F)cc(F)c4[nH]3)c2N2CCC(N)CC2)c1` [Compound 1-80, 4-(4-aminopiperidin-1-yl)-3-(5,7-difluoro-1H-1,3-benzodiazol-2-yl)-5-(3-methoxy-5-methylphenyl)pyridin-2-amine], the EC50 is below 10 nM. Then `Nc1ncc(-c2cc(F)cc(F)c2)c(N2CCC(N)CC2)c1-c1nc2cc(Cl)ccc2[nH]1` [Compound 1-81, 4-(4-aminopiperidin-1-yl)-3-(5-chloro-1H-1,3-benzodiazol-2-yl)-5-(3,5-difluorophenyl)pyridin-2-amine], with below 10 nM. On to `Nc1ncc(-c2cc(F)cc(F)c2)c(N2CCC(N)CC2)c1-c1nc2cc(Cl)cc(F)c2[nH]1` [Compound 1-82, 4-(4-aminopiperidin-1-yl)-3-(5-chloro-7-fluoro-1H-1,3-benzodiazol-2-yl)-5-(3,5-difluorophenyl)pyridin-2-amine], for which the EC50 was below 10 nM. Turning to `COc1cc(F)cc2[nH]c(-c3c(N)ncc(-c4cc(C)cc(C)c4)c3N3CCC(N)CC3)nc12` [Compound 1-83, 4-(4-aminopiperidin-1-yl)-5-(3,5-dimethylphenyl)-3-(6-fluoro-4-methoxy-1H-1,3-benzodiazol-2-yl)pyridin-2-amine], the EC50 was below 10 nM. For `COc1cc(F)c2[nH]c(-c3c(N)ncc(-c4cc(C)cc(C)c4)c3N3CCC(N)CC3)nc2c1` [Compound 1-84], the EC50 was below 10 nM. Then `N#Cc1cc(F)c2[nH]c(-c3c(N)ncc(-c4cc(F)cc(Cl)c4)c3N3CCC(N)CC3)nc2c1` [Compound 1-85, 2-[2-amino-4-(4-aminopiperidin-1-yl)-5-(3-chloro-5-fluorophenyl)pyridin-3-yl]-7-fluoro-1H-1,3-benzodiazole-5-carbonitrile], with below 10 nM. Then `Nc1ncc(-c2cc(F)cc(F)c2)c(N2CCC(N)CC2)c1-c1nc2cc(OC(F)(F)F)ccc2[nH]1` [Compound 1-86, 4-(4-aminopiperidin-1-yl)-5-(3,5-difluorophenyl)-3-[5-(trifluoromethoxy)-1H-1,3-benzodiazol-2-yl]pyridin-2-amine], with below 10 nM; and `N#CCOc1cc(F)cc2nc(-c3c(N)ncc(-c4cc(F)cc(Cl)c4)c3N3CCC(N)CC3)[nH]c12` [Compound 1-87, 2-({2-[2-amino-4-(4-aminopiperidin-1-yl)-5-(3-chloro-5-fluorophenyl)pyridin-3-yl]-5-fluoro-1H-1,3-benzodiazol-7-yl}oxy)acetonitrile], with below 10 nM; and `N#CCOc1cc(F)c2[nH]c(-c3c(N)ncc(-c4cc(F)cc(Cl)c4)c3N3CCC(N)CC3)nc2c1` [Compound 1-88, 2-({2-[2-amino-4-(4-aminopiperidin-1-yl)-5-(3-chloro-5-fluorophenyl)pyridin-3-yl]-7-fluoro-1H-1,3-benzodiazol-5-yl}oxy)acetonitrile], with below 10 nM. Take `CNc1ncc(-c2cc(C)cc(F)c2)c(N2CCC(N)CC2)c1-c1nc2cc(C#N)cc(F)c2[nH]1` [Compound 1-89, 2-[4-(4-aminopiperidin-1-yl)-5-(3-fluoro-5-methylphenyl)-2-(methylamino)pyridin-3-yl]-7-fluoro-1H-1,3-benzodiazole-5-carbonitrile]: the EC50 was below 10 nM. Then `COc1cc(F)cc2nc(-c3c(N)ncc(-c4cc(F)cc(Cl)c4)c3N3CCC(N)CC3)[nH]c12` [Compound 1-90, 4-(4-aminopiperidin-1-yl)-5-(3-chloro-5-fluorophenyl)-3-(5-fluoro-7-methoxy-1H-1,3-benzodiazol-2-yl)pyridin-2-amine], with below 10 nM; and `COc1cc(F)cc2nc(-c3c(N)ncc(-c4ccc(F)c(C)c4)c3N3CCC(N)CC3)[nH]c12` [Compound 1-91, 4-(4-aminopiperidin-1-yl)-5-(4-fluoro-3-methylphenyl)-3-(5-fluoro-7-methoxy-1H-1,3-benzodiazol-2-yl)pyridin-2-amine], with below 10 nM. With `COc1cc(F)cc2nc(-c3c(N)ncc(-c4cccc(Cl)c4)c3N3CCC(N)CC3)[nH]c12` [Compound 1-92, 4-(4-aminopiperidin-1-yl)-5-(3-chlorophenyl)-3-(5-fluoro-7-methoxy-1H-1,3-benzodiazol-2-yl)pyridin-2-amine], the EC50 was below 10 nM. The same measure for `COc1cc(F)cc2nc(-c3c(N)ncc(-c4cccc(C)c4)c3N3CCC(N)CC3)[nH]c12` [Compound 1-93, 4-(4-aminopiperidin-1-yl)-3-(5-fluoro-7-methoxy-1H-1,3-benzodiazol-2-yl)-5-(3-methylphenyl)pyridin-2-amine]: below 10 nM; for `COc1cc(Cl)cc2nc(-c3c(N)ncc(-c4cc(C)cc(F)c4)c3N3CCC(N)CC3)[nH]c12` [Compound 1-94, 4-(4-aminopiperidin-1-yl)-3-(5-chloro-7-methoxy-1H-1,3-benzodiazol-2-yl)-5-(3-fluoro-5-methylphenyl)pyridin-2-amine]: below 10 nM.

Take `Cc1cc(F)cc(-c2cnc(O)c(-c3nc4cc(Cl)ccc4[nH]3)c2N2CCC(N)CC2)c1` [Compound 2-4, 4-(4-aminopiperidin-1-yl)-3-(5-chloro-1H-1,3-benzodiazol-2-yl)-5-(3-fluoro-5-methylphenyl)pyridin-2-ol]: the EC50 was below 10 nM. For the compound `COc1ncc(-c2cc(C)cc(C#N)c2)c(N2CCC(N)CC2)c1-c1nc2cc(Cl)ccc2[nH]1` [Compound 2-6, 3-[4-(4-aminopiperidin-1-yl)-5-(5-chloro-1H-1,3-benzodiazol-2-yl)-6-methoxypyridin-3-yl]-5-methylbenzonitrile], the EC50 was in the range of 10 to 100 nM. For the compound `Cc1cc(F)cc(-c2cnc(O)c(-c3nc4cc(F)c(F)cc4[nH]3)c2N2CCC(N)CC2)c1` [Compound 2-7, 4-(4-aminopiperidin-1-yl)-3-(5,6-difluoro-1H-1,3-benzodiazol-2-yl)-5-(3-fluoro-5-methylphenyl)pyridin-2-ol], the EC50 fell in the range of 10 to 100 nM. The same measure for `COc1ncc(-c2cc(C)cc(F)c2)c(N2CCC(N)CC2)c1-c1nc2cc(C#N)ccc2[nH]1` [Compound 2-8, 2-[4-(4-aminopiperidin-1-yl)-5-(3-fluoro-5-methylphenyl)-2-methoxypyridin-3-yl]-1H-1,3-benzodiazole-5-carbonitrile]: below 10 nM.

As to `COc1ncc(-c2cc(C)cc(F)c2)c(N2CCC(N)CC2)c1-c1nc2cc(Cl)ncc2[nH]1` [Compound 2-9], the EC50 is below 10 nM.

For the compound `Cc1cc(F)cc(-c2cnc(O)c(-c3nc4cc(F)ccc4[nH]3)c2N2CCC(N)CC2)c1` [Compound 2-10, 4-(4-aminopiperidin-1-yl)-3-(5-fluoro-1H-1,3-benzodiazol-2-yl)-5-(3-fluoro-5-methylphenyl)pyridin-2-ol], the EC50 fell in the range of 10 to 100 nM. Then `Cc1cc(F)cc(-c2cnc(Cl)c(-c3nc4cc(F)ccc4[nH]3)c2N2CCC(N)CC2)c1` [Compound 2-11, 1-[2-chloro-3-(5-fluoro-1H-1,3-benzodiazol-2-yl)-5-(3-fluoro-5-methylphenyl)pyridin-4-yl]piperidin-4-amine], with below 10 nM; and `COc1ncc(-c2cc(C)cc(Cl)c2)c(N2CCC(N)CC2)c1/C=N/OC(C)(C)C` [Compound 2-12, 1-{3-[(1E)-[(tert-butoxy)imino]methyl]-5-(3-chloro-5-methylphenyl)-2-methoxypyridin-4-yl}piperidin-4-amine], with above 100 nM.

As for `COc1ncc(-c2cc(C)cc(F)c2)c(N2CCC(N)CC2)c1-c1nc2nc(Cl)ccc2[nH]1` [Compound 2-13, 1-(3-{5-chloro-1H-imidazo[4,5-b]pyridin-2-yl}-5-(3-fluoro-5-methylphenyl)-2-methoxypyridin-4-yl)piperidin-4-amine], the EC50 is below 10 nM.

On to `COc1ncc(-c2cc(F)cc(F)c2)c(N2CCC(N)CC2)c1-c1nc2cc(Cl)ccc2[nH]1` [Compound 2-14, 1-[3-(5-chloro-1H-1,3-benzodiazol-2-yl)-5-(3,5-difluorophenyl)-2-methoxypyridin-4-yl]piperidin-4-amine], for which the EC50 was 10 to 100 nM.

`Cc1cc(F)cc(-c2cnnc(-c3cc4cc(Cl)ccc4[nH]3)c2N2CCC(N)CC2)c1` [Compound 3-1, 1-[3-(5-chloro-1H-indol-2-yl)-5-(3-fluoro-5-methylphenyl)pyridazin-4-yl]piperidin-4-amine]: the EC50 is below 10 nM.

Regarding `Cc1cc(F)cc(-c2cnnc(-c3cc4ccc(Cl)cc4[nH]3)c2N2CCC(N)CC2)c1` [Compound 3-2, 1-[3-(6-chloro-1H-indol-2-yl)-5-(3-fluoro-5-methylphenyl)pyridazin-4-yl]piperidin-4-amine], the EC50 is below 10 nM. Then `Cc1cc(F)cc(-c2cnnc(-c3nc4cc(Cl)ccc4[nH]3)c2N2CCC(N)CC2)c1` [Compound 3-3, 1-[3-(5-chloro-1H-1,3-benzodiazol-2-yl)-5-(3-fluoro-5-methylphenyl)pyridazin-4-yl]piperidin-4-amine], with below 10 nM.
